Laboratory results reported in ChEMBL document CHEMBL2086285, “Targeting the liver stage of malaria parasites: a yet unmet goal” (J Med Chem, 2012).

These molecules were tested on Plasmodium yoelii (assay: Antimalarial activity against liver stages of Plasmodium yoelii). Conditions: not given.
Type: functional, organism-based

IC50 | Structure (SMILES)
> 200 µM | CN1CN(Cc2ccccc2)C(=O)N[C@@H](Cc2ccccc2)C1=O
> 200 µM | CN1CNC(=O)N[C@H](Cc2ccccc2)C1=O

What follows are molecules tested on Plasmodium falciparum (assay: Antimalarial activity against liver stages of Plasmodium falciparum NF54 infected in human HepG2 cells after 6 days by fluorescence microscopy). Conditions: NF54, HepG2, 144 h.
Type: functional, organism-based

IC50 | Structure (SMILES)
20 nM | COc1cc([C@H](O)[C@H](C)Oc2c(OC)cc(-c3ccccc3)cc2OC)cc(OC)c1OC
7 nM | COc1cc([C@H](O)[C@@H](C)Oc2c(OC)cc(-c3ccccc3)cc2OC)cc(OC)c1OC

Structure (SMILES) | IC50
COc1cc([C@H](O)[C@@H](C)Oc2c(OC)cc(C)cc2OC)cc(OC)c1OC | 380 nM

Each molecule was assayed on Plasmodium berghei (assay: Antimalarial activity against liver stages of Plasmodium berghei assessed as inhibition of cytochrome bc1 complex). Conditions: not given.
Type: functional, organism-based

IC50 | Structure (SMILES)
17.1 nM | C[C@H](CCCCCC(F)(F)F)CC1=C(O)C(=O)c2ccccc2C1=O
4450 nM | Cc1cccc2c1C(=O)C(O)=C(C[C@H](C)CCCCCC(F)(F)F)C2=O
96.2 nM | CCCCCC[C@@H](C)CC1=C(O)C(=O)c2ccccc2C1=O
246 nM | CCCCCC[C@@H](C)CC1=C(O)C(=O)c2c(C)cccc2C1=O

What follows are molecules tested on Plasmodium falciparum (assay: Antimalarial activity against liver stages of Plasmodium falciparum after 96 hrs). Conditions: not given.
Type: functional, organism-based

IC50 | Structure (SMILES)
2.9 µM | C[C@]1(C(=O)O)CSC(c2ncccc2O)=N1 [DESFERRITHIOCIN]
3.4 µM | CC(=O)N(O)CCCCCNC(=O)CCC(=O)N(O)CCCCCNC(=O)CCC(=O)N(O)CCCCCN [DEFEROXAMINE]

Each molecule was assayed on Plasmodium berghei (assay: Antimalarial activity against liver stages of Plasmodium berghei). Conditions: not given.
Type: functional, organism-based

Structure (SMILES) | IC50
COc1cc(NC(C)CCCN)c2ncccc2c1 (stereo not given) [PRIMAQUINE] | 13 µM
COc1cc(NC(C)CCCNCc2ccc(CO[C@H]3O[C@@H]4O[C@@]5(C)CC[C@H]6[C@H](C)CCC([C@H]3C)[C@@]46OO5)cc2)c2ncccc2c1 (stereo not given in full) | 0.155 µM

These molecules were tested on Plasmodium yoelii (assay: Antimalarial activity against liver stages of Plasmodium yoelii after 96 hrs). Conditions: Plasmodium yoelii, 96 h.
Type: functional, organism-based

IC50 | Structure (SMILES)
10 µM | C[C@]1(C(=O)O)CSC(c2ncccc2O)=N1 [DESFERRITHIOCIN]
20 µM | CC(=O)N(O)CCCCCNC(=O)CCC(=O)N(O)CCCCCNC(=O)CCC(=O)N(O)CCCCCN [DEFEROXAMINE]

The molecules below were run on Plasmodium yoelii (assay: Antimalarial activity against Plasmodium yoelii infected in CD-1 mouse assessed as efficacy at 160 mg/kg, ip). Conditions: route intraperitoneal.
Type: functional

Structure (SMILES) | Efficacy
CC[C@H]1OC(=O)[C@H](C)[C@@H](O[C@H]2C[C@@](C)(OC)[C@@H](O)[C@H](C)O2)[C@H](C)[C@@H](O[C@@H]2O[C@H](C)C[C@H](N(C)C)[C@H]2O)[C@](C)(O)C[C@@H](C)CN(C)[C@H](C)[C@@H](O)[C@]1(C)O [AZITHROMYCIN] | 100%
C[C@H]1c2cccc(O)c2C(=O)C2=C(O)[C@]3(O)C(=O)C(C(N)=O)=C(O)[C@@H](N(C)C)[C@@H]3[C@@H](O)[C@@H]21.O [DOXYCYCLINE] | 100%

The molecules below were run on Plasmodium yoelii (assay: Antimalarial activity against liver stages of Plasmodium yoelii 17XNL expressing GFP infected in human HepG2 cells transfected with CD81 assessed as growth inhibition of hepatic parasite after 40 hrs by flow cytometry). Conditions: not given.
Type: functional, organism-based

Structure (SMILES) | IC50
CO[C@H]1/C=C/O[C@@]2(C)Oc3c(C)c(O)c4c(O)c(c(/C=N/N5CCN(C)CC5)c(O)c4c3C2=O)NC(=O)/C(C)=C\C=C\[C@H](C)[C@H](O)[C@@H](C)[C@@H](O)[C@@H](C)[C@H](OC(C)=O)[C@@H]1C [RIFAMPIN] | 22.2 µM
Oc1c(Cl)cc(Cl)c(Cl)c1Cc1c(O)c(Cl)cc(Cl)c1Cl [HEXACHLOROPHENE] | 4 µM

Each molecule was assayed on Plasmodium berghei (assay: Antimalarial activity against liver stages of Plasmodium berghei […] infected in human Hepa1-6 cells assessed as reduction in liver parasite load at 10 uM/L incubated for 1 hr prior to sporozoite inoculation measured after 46 to 48 hrs by fluorescence microscope). Conditions: not given.
Type: functional
Set-up: scale not given: the % may be the effect or the level left

Structure (SMILES) | Activity
CC(C)(C)NC(=O)[C@@H]1C[C@@H]2CCCC[C@@H]2CN1C[C@@H](O)[C@H](Cc1ccccc1)NC(=O)[C@H](CC(N)=O)NC(=O)c1ccc2ccccc2n1 | 55%

What follows are molecules tested on Plasmodium yoelii yoelii (assay: Antimalarial activity against liver stages of Plasmodium yoelii yoelii). Conditions: not given.
Type: functional, organism-based

IC50 | Structure (SMILES)
35.6 nM | CC(N)C12CC3CC(CC(C3)C1)C2 (stereo not given) [RIMANTADINE]
0.927 nM | C=CC(C)(C)c1cc(/C=C/C(=O)c2ccc(O)cc2)c(OC)cc1O [LICOAGROCHACONE A]
7950 nM | CC[C@]1(O)C[C@@H]2CN(CCc3c([nH]c4ccccc34)[C@@](C(=O)OC)(c3cc4c(cc3OC)N(C)[C@H]3[C@@](O)(C(=O)OC)[C@H](OC(C)=O)[C@]5(CC)C=CCN6CC[C@]43[C@@H]65)C2)C1 [VINBLASTINE]
0.846 nM | CC(C)Nc1cccnc1N1CCN(C(=O)c2cc3cc(NS(C)(=O)=O)ccc3[nH]2)CC1 [DELAVIRDINE]
3.7 nM | CC(CCc1ccc(O)cc1)NCCc1ccc(O)c(O)c1 (stereo not given) [DOBUTAMINE]
0.873 nM | COCC(=O)O[C@]1(CCN(C)CCCc2nc3ccccc3[nH]2)CCc2cc(F)ccc2[C@@H]1C(C)C [MIBEFRADIL]
3950 nM | CC[C@H](C)[C@H](NC(=O)[C@H]([C@@H](C)CC)N(C)C(C)=O)C(=O)N[C@H](C(=O)N[C@@H](CC(C)C)C(=O)[C@@]1(C)CO1)[C@@H](C)O [EPOXOMYCIN]

The molecules below were run on Plasmodium yoelii (assay: Antimalarial activity against liver stages of Plasmodium yoelii 265 BY infected in Swiss mouse after 48 hrs by fluorescence microscopy). Conditions: not given.
Type: functional, organism-based

IC50 | Structure (SMILES)
20.2 µM | COc1cccc(OC)c1OC(C)[C@@H](O)c1ccc2c(c1)OC(F)(F)O2 (mixture of isomers; 144)
19 µM | COc1cc(C)cc(OC)c1OC(C)[C@@H](O)c1ccc2c(c1)OC(F)(F)O2 (mixture of isomers; 145)
5.62 µM | COc1cc(C)cc(OC)c1OC(C)[C@@H](O)c1ccc2c(c1)OC(F)(F)O2 (mixture of isomers; 146)

Same assay, conditions: Plasmodium yoelii, 265 BY, 48 h

Structure (SMILES) | IC50
COc1cc([C@H](O)[C@@H](C)Oc2c(OC)cc(C)cc2OC)cc(OC)c1OC | 0.0045 µM
COc1cc([C@H](O)[C@H](C)Oc2c(OC)cc(C)cc2OC)cc(OC)c1OC | 50.1 µM

Now from value to molecule:

IC50 | Structure (SMILES)
20.1 µM | COc1cccc(OC)c1OC(C)[C@@H](O)c1ccc2c(c1)OC(F)(F)O2 (mixture of isomers; 143)
3.54 µM | COc1cc([C@H](O)[C@H](C)Oc2c(OC)cc(-c3ccccc3)cc2OC)cc(OC)c1OC
3.61 µM | COc1cc([C@H](O)[C@@H](C)Oc2c(OC)cc(-c3ccccc3)cc2OC)cc(OC)c1OC
28.6 µM | COc1cc([C@H](O)[C@H](C)Oc2c(OC)cccc2OC)cc(OC)c1OC
2.52 µM | COc1cc([C@H](O)[C@@H](C)Oc2c(OC)cccc2OC)cc(OC)c1OC

The molecules below were run on Plasmodium yoelii (assay: Antimalarial activity against Plasmodium yoelii infected in CD-1 mouse assessed as efficacy at 40 mg/kg, ip). Conditions: route intraperitoneal.
Type: functional

Structure (SMILES) | Efficacy
CC[C@H]1OC(=O)[C@H](C)[C@@H](O[C@H]2C[C@@](C)(OC)[C@@H](O)[C@H](C)O2)[C@H](C)[C@@H](O[C@@H]2O[C@H](C)C[C@H](N(C)C)[C@H]2O)[C@](C)(O)C[C@@H](C)CN(C)[C@H](C)[C@@H](O)[C@]1(C)O [AZITHROMYCIN] | 80%
C[C@H]1c2cccc(O)c2C(=O)C2=C(O)[C@]3(O)C(=O)C(C(N)=O)=C(O)[C@@H](N(C)C)[C@@H]3[C@@H](O)[C@@H]21.O [DOXYCYCLINE] | 40%

The molecules below were run on Plasmodium yoelii (assay: Antimalarial activity against Plasmodium yoelii infected in CD-1 mouse assessed as efficacy at 40 mg/kg, po after 2 hrs). Conditions: not given.
Type: functional

Structure (SMILES) | Efficacy
CC[C@H]1OC(=O)[C@H](C)[C@@H](O[C@H]2C[C@@](C)(OC)[C@@H](O)[C@H](C)O2)[C@H](C)[C@@H](O[C@@H]2O[C@H](C)C[C@H](N(C)C)[C@H]2O)[C@](C)(O)C[C@@H](C)CN(C)[C@H](C)[C@@H](O)[C@]1(C)O [AZITHROMYCIN] | 40%

Each molecule was assayed on Plasmodium cynomolgi (assay: Antimalarial activity against Plasmodium cynomolgi M infected in rhesus monkey administered as po qd for 7 days). Conditions: in Macaca mulatta, 168 h.
Type: functional

Structure (SMILES) | ED50
COc1cc(NC(C)CCCN)c2nc(OCc3ccc(F)cc3)ccc2c1 (stereo not given) | 0.35 mg/kg
COc1cc(NC(C)CCCN)c2nc(C)ccc2c1F (stereo not given) | 0.21 mg/kg
COc1cc(NC(C)CCCN)c2nccc(C)c2c1 (stereo not given) | 0.2 mg/kg
COc1cc(NC(C)CCCN)c2nc(C)ccc2c1 (stereo not given) | 0.38 mg/kg
COc1cc(NC(C)CCCN)c2ncccc2c1 (stereo not given) [PRIMAQUINE] | 0.38 mg/kg
COc1cc(NC(C)CCCN)c2ncccc2c1Oc1ccc(F)cc1 (stereo not given) | 0.23 mg/kg
CCOc1c(OC)cc(NC(C)CCCN)c2ncccc12 (stereo not given) | 0.18 mg/kg

What follows are molecules tested on Plasmodium vivax (assay: Antimalarial activity against Plasmodium vivax assessed as effect on cure rate after 28 days). Conditions: not given.
Type: functional

Structure (SMILES) | Activity
CC[C@H]1OC(=O)[C@H](C)[C@@H](O[C@H]2C[C@@](C)(OC)[C@@H](O)[C@H](C)O2)[C@H](C)[C@@H](O[C@@H]2O[C@H](C)C[C@H](N(C)C)[C@H]2O)[C@](C)(O)C[C@@H](C)CN(C)[C@H](C)[C@@H](O)[C@]1(C)O [AZITHROMYCIN] | 58%
C[C@H]1c2cccc(O)c2C(=O)C2=C(O)[C@]3(O)C(=O)C(C(N)=O)=C(O)[C@@H](N(C)C)[C@@H]3[C@@H](O)[C@@H]21.O [DOXYCYCLINE] | 56%

What follows are molecules tested on Plasmodium yoelii (assay: Antimalarial activity against Plasmodium yoelii infected in CD-1 mouse assessed as efficacy at 160 mg/kg, po after 2 hrs). Conditions: not given.
Type: functional

Structure (SMILES) | Efficacy
CC[C@H]1OC(=O)[C@H](C)[C@@H](O[C@H]2C[C@@](C)(OC)[C@@H](O)[C@H](C)O2)[C@H](C)[C@@H](O[C@@H]2O[C@H](C)C[C@H](N(C)C)[C@H]2O)[C@](C)(O)C[C@@H](C)CN(C)[C@H](C)[C@@H](O)[C@]1(C)O [AZITHROMYCIN] | 100%
